{"source": "patent US4001237A", "about": "“Oxazole, isoxazole, thiazole and isothiazole amides” (priority 1976, dated 1977)", "assay": "Clinical use as antihypertensive agent in humans (literature reports)", "format": "in vivo, human", "settings": "clinical daily dose ranges 150 to 500 mg. versus 1.5 to 15 mg.", "data": [{"smiles": "COc1cc2c(N)nc(N3CCN(C(=O)OCC(C)(C)O)CC3)nc2c(OC)c1OC", "note": "[Trimazosin]", "values": [{"measurement": "weaker than prazosin at the lower end of the clinical daily dosage range", "value": 100, "unit": "fold"}]}]}
